Assay results: ChEMBL document CHEMBL4804281, “STK4 inhibitors for treatment of hematologic malignancies” (2020)
The source made the active and inactive calls. The rule behind the calls is not given here.

How the values were obtained:
MM1.S = test: Upregulation of YAP1 protein level in human MM1.S cells at 1 uM measured after 16 hrs by Western blot analysis; format: functional, cell-based
[1] = biological target: T1, Serine/threonine-protein kinase 3 (Homo sapiens) (UniProt Q13188); test: Inhibition of STK3 (unknown origin) using fluorescein-labelled Ser/Thr-07 peptide as substrate incubated for 1 hr in presence of ATP at Km concentration by Z-LYTE assay
T1 sequence (whole entry): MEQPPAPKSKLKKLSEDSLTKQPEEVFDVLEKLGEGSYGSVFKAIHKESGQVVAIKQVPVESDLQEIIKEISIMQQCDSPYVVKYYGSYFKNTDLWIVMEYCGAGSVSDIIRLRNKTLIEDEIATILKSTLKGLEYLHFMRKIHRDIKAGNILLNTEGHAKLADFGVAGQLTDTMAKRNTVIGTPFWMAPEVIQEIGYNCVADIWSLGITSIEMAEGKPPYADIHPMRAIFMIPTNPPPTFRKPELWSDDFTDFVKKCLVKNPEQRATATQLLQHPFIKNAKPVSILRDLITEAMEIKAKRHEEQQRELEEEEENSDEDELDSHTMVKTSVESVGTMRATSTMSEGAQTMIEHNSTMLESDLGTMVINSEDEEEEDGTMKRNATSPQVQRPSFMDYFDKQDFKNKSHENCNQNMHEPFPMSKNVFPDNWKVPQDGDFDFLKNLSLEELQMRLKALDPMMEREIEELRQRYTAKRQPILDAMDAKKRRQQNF

[2] = biological target: RAC-beta serine/threonine-protein kinase (Homo sapiens) (UniProt P31751); test: Inhibition of AKT2 in human NCI-H929 cells at 10 uM by mass spectroscopic analysis relative to control; format: cell-based
Sequence of RAC-beta serine/threonine-protein kinase (Homo sapiens) (P31751 whole entry): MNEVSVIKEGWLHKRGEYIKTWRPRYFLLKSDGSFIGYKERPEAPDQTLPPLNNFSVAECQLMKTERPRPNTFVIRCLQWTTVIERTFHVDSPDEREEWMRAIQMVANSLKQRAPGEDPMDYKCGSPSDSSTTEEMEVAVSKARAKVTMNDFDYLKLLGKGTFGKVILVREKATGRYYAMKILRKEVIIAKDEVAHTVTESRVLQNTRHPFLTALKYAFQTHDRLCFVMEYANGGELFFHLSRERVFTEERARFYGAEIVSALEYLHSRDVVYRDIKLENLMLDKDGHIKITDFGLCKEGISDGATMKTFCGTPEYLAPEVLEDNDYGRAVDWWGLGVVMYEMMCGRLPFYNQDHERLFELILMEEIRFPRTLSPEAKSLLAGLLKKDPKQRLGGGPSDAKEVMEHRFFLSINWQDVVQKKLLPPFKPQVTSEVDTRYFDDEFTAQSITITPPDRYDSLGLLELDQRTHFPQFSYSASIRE

[3] = biological target: Calcium/calmodulin-dependent protein kinase kinase 2 (Homo sapiens) (UniProt Q96RR4); test: Inhibition of CAMKK2 in human NCI-H929 cells at 10 uM by mass spectroscopic analysis relative to control; format: cell-based
Sequence of Calcium/calmodulin-dependent protein kinase kinase 2 (Homo sapiens) (Q96RR4 2-588 limits assumed): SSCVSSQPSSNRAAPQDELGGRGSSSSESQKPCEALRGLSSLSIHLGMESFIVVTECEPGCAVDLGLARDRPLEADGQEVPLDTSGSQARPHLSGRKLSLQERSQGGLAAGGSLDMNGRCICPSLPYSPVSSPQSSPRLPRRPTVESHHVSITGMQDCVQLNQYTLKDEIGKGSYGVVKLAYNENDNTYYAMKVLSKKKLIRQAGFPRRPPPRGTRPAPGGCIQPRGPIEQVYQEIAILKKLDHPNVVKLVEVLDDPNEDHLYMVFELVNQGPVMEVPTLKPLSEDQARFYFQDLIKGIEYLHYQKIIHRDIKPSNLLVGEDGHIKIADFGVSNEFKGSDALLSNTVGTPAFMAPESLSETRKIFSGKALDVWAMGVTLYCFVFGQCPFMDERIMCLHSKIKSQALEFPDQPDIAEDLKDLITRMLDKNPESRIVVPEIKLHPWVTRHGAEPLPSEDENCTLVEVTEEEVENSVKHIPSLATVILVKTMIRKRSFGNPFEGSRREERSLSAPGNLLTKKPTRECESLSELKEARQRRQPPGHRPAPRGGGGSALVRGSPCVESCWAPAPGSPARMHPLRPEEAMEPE

[4] = biological target: Rho-associated protein kinase 1 (Homo sapiens) (UniProt Q13464); test: Inhibition of ROCK1 in human NCI-H929 cells at 10 uM by mass spectroscopic analysis relative to control; format: cell-based
[5] = biological target: Ribosomal protein S6 kinase alpha-2 (Homo sapiens) (UniProt Q15349); test: Inhibition of RSK3 domain 1 in human NCI-H929 cells at 10 uM by mass spectroscopic analysis relative to control; format: cell-based
Sequence of Ribosomal protein S6 kinase alpha-2 (Homo sapiens) (Q15349 whole entry, the tested form may be a part): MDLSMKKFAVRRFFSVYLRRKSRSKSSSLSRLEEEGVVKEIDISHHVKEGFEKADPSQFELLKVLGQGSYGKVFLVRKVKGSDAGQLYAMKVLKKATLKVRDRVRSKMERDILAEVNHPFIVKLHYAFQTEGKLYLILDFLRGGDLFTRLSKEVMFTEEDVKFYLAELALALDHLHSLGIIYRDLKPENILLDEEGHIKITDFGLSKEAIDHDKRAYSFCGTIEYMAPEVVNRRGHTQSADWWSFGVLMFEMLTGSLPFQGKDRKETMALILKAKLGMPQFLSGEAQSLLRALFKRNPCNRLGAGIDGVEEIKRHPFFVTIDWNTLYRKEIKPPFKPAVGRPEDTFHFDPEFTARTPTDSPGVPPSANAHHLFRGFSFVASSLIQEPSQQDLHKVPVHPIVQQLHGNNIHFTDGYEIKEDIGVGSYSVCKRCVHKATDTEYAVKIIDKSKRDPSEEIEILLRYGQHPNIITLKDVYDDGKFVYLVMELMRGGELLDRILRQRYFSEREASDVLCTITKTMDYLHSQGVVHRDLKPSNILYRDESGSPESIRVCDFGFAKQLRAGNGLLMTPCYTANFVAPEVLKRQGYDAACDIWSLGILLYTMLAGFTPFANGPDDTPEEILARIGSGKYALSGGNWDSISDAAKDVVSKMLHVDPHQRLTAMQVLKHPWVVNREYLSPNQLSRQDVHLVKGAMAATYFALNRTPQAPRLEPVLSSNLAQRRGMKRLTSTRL

[6] = biological target: Misshapen-like kinase 1 (Homo sapiens) (UniProt Q8N4C8); test: Inhibition of MINK in human NCI-H929 cells at 10 uM by mass spectroscopic analysis relative to control; format: cell-based
Sequence of Misshapen-like kinase 1 (Homo sapiens) (Q8N4C8 whole entry, looked up): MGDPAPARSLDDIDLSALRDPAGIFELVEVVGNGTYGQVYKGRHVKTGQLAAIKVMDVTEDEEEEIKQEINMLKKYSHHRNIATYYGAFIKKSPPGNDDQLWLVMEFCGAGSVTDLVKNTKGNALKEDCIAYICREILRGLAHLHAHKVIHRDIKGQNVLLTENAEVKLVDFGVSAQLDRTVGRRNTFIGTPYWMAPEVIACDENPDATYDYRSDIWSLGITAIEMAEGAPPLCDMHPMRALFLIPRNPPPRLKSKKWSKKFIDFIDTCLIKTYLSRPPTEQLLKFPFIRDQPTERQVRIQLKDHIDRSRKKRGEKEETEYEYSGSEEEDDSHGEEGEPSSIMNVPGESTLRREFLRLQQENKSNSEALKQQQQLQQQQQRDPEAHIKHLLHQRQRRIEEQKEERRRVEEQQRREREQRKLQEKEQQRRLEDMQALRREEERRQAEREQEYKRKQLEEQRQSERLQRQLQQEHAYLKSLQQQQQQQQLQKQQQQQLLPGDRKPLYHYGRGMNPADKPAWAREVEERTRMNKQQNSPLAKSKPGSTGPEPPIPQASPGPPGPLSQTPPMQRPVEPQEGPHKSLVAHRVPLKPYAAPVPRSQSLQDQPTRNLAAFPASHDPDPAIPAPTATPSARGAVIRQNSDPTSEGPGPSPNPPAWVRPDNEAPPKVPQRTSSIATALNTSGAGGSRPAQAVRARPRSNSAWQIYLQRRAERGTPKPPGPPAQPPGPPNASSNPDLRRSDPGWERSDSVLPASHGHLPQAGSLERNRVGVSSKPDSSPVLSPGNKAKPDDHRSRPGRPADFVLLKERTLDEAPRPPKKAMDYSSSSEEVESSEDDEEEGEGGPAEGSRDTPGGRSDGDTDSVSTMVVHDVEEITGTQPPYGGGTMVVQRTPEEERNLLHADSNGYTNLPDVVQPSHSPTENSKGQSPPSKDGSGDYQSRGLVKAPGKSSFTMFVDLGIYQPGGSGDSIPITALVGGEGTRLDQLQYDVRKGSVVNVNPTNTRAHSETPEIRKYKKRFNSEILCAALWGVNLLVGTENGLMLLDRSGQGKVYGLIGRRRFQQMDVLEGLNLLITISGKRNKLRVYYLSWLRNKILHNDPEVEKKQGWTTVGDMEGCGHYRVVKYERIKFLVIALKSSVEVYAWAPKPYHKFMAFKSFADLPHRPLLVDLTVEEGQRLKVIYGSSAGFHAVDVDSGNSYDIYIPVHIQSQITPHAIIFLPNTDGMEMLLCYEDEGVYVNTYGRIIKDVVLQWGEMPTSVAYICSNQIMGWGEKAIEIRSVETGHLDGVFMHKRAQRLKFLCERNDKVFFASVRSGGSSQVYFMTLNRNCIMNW

[7] = biological target: T2, Serine/threonine-protein kinase TAO3 (Homo sapiens) (UniProt Q9H2K8); test: Inhibition of TAO3 in human NCI-H929 cells at 10 uM by mass spectroscopic analysis relative to control; format: cell-based
T2 sequence (whole entry): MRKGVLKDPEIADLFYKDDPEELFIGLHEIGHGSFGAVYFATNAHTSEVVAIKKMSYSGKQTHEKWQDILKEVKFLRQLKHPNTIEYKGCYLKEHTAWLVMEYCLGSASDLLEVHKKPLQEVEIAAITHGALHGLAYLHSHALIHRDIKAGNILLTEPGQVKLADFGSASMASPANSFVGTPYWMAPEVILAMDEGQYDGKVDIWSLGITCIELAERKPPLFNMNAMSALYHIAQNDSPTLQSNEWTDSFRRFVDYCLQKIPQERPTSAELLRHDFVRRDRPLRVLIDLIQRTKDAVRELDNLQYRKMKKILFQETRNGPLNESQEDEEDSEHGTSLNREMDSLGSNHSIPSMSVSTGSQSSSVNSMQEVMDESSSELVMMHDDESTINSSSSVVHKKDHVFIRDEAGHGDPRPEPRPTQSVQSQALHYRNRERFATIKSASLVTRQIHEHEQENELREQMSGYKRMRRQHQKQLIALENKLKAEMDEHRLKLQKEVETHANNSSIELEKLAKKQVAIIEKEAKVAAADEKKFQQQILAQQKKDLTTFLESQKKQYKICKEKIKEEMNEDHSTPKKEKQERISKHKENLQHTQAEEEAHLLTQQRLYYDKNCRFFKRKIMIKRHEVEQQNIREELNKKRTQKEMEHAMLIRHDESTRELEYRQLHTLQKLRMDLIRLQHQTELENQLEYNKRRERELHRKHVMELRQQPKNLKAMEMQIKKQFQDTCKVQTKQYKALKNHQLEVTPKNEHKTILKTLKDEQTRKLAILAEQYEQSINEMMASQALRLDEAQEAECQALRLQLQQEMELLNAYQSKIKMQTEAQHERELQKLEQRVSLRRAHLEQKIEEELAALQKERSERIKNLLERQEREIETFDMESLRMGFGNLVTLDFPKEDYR

[8] = biological target: Microtubule-associated serine/threonine-protein kinase 1 (Homo sapiens) (UniProt Q9Y2H9); test: Inhibition of MAST1 in human NCI-H929 cells at 10 uM by mass spectroscopic analysis relative to control; format: cell-based
Sequence of Microtubule-associated serine/threonine-protein kinase 1 (Homo sapiens) (Q9Y2H9 whole entry, looked up): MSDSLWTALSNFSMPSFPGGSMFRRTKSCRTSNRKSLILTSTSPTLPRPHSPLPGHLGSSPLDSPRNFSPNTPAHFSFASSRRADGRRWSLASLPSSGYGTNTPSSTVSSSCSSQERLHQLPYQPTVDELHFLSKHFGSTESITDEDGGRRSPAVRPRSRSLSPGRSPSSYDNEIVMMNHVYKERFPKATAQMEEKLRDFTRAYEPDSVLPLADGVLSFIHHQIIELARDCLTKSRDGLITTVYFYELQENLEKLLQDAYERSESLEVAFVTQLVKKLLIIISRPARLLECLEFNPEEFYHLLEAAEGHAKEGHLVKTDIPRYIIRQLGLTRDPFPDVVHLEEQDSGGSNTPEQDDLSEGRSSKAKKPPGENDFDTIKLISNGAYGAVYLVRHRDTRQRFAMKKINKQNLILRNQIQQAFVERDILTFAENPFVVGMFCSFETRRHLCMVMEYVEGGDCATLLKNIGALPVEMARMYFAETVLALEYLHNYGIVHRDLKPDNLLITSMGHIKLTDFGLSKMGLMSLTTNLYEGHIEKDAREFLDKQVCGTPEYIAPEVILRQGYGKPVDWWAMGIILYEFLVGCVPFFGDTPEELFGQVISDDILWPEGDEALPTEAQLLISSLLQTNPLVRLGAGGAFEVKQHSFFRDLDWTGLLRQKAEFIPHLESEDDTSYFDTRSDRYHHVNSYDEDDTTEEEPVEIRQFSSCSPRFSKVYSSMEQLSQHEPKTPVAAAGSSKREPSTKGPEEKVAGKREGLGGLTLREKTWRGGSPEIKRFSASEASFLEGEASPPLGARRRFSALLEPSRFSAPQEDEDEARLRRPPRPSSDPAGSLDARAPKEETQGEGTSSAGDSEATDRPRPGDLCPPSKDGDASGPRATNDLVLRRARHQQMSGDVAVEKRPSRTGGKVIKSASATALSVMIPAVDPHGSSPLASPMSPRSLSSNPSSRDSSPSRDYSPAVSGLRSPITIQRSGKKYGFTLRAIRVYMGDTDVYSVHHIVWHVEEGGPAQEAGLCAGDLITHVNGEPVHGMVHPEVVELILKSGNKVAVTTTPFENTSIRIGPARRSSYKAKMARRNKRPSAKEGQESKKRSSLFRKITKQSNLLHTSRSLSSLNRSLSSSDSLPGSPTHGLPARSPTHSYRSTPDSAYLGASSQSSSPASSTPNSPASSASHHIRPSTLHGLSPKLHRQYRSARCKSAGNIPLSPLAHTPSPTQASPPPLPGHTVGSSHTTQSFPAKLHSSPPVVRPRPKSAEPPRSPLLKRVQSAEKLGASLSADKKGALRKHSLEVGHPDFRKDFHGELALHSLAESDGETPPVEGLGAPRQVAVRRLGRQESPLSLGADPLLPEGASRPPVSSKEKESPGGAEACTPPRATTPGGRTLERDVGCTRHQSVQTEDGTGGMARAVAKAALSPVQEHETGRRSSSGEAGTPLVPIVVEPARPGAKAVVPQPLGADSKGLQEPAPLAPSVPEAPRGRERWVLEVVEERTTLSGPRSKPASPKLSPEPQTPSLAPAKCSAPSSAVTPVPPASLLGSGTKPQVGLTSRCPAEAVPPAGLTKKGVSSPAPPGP

[9] = biological target: T3, Tyrosine-protein kinase receptor TYRO3 (Homo sapiens) (UniProt Q06418); test: Inhibition of TYRO3 in human NCI-H929 cells at 10 uM by mass spectroscopic analysis relative to control; format: cell-based
T3 sequence (whole entry): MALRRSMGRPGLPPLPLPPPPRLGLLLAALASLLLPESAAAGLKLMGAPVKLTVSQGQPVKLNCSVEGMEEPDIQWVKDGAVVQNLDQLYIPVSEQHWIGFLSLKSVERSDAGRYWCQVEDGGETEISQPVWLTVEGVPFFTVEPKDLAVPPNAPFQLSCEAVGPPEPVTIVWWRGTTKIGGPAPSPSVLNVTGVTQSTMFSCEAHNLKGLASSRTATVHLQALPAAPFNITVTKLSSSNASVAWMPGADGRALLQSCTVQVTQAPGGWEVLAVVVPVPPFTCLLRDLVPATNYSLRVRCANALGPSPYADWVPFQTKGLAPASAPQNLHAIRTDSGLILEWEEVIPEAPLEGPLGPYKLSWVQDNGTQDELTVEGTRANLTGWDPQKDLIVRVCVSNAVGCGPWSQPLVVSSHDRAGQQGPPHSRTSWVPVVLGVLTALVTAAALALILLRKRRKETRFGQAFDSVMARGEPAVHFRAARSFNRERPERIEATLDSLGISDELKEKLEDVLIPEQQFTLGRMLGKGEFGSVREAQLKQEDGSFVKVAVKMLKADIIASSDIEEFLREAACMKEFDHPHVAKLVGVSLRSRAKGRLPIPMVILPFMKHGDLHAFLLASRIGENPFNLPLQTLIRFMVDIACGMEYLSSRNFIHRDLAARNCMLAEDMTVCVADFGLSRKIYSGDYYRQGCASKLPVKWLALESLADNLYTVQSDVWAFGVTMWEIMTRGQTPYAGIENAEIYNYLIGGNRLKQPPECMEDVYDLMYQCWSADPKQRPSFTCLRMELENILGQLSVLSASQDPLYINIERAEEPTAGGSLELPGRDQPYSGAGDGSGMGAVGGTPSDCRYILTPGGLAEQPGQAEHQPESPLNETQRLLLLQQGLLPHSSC

IC50 [1] | inhibition [2] | inhibition [3] | inhibition [4] | inhibition [5] | inhibition [6] | inhibition [7] | inhibition [8] | inhibition [9] | SMILES | Activity (MM1.S)
< 40 nM | 0% | 50% | 0% | 0% | > 90% | – | – | – | CN(C1CC1)S(=O)(=O)c1ccc(-c2cnc(N)c(-c3ccc4c(c3)CCNC4=O)c2)c(F)c1 | Active
40 nM | 0% | 50% | 0% | 0% | > 90% | 0% | – | – | Nc1ncc(-c2cccc3ncsc23)cc1-c1ccc2c(c1)CCNC2=O | Active
< 40 nM | 0% | – | 0% | – | > 90% | – | – | – | Nc1ncc(-c2cccc([N+](=O)[O-])c2F)cc1-c1ccc2c(c1)CCNC2=O | Active
– | – | 0% | – | 0% | 50% | 0% | 0% | 0% | COc1cc(NS(=O)(=O)C2CC2)ccc1-c1cnc(N)c(-c2ccc3c(c2)CCNC3=O)c1 | –
– | – | – | – | 50% | 50% | 0% | 0% | 0% | Nc1ncc(-c2ccc(NS(=O)(=O)C3CC3)cc2OC2CCCCC2)cc1-c1ccc2c(c1)CCNC2=O | –
– | – | – | – | 0% | – | – | 0% | 0% | Nc1ncc(-c2ccc(NS(=O)(=O)C3CC3)cc2F)cc1-c1ccc2c(c1)CCNC2=O | –
